Key:
ALDH3A1 = target: T1, ALDH3A1 (Homo sapiens, UniProt P30838); assay: Kinetic characteristics (Michaelis-Menten Km, Kcat) with ALDH3A1; type: biochemical; settings: five minutes at 37° C., Tris buffer pH 7.5
T1 construct: purchased
T1 sequence (P30838 1-453): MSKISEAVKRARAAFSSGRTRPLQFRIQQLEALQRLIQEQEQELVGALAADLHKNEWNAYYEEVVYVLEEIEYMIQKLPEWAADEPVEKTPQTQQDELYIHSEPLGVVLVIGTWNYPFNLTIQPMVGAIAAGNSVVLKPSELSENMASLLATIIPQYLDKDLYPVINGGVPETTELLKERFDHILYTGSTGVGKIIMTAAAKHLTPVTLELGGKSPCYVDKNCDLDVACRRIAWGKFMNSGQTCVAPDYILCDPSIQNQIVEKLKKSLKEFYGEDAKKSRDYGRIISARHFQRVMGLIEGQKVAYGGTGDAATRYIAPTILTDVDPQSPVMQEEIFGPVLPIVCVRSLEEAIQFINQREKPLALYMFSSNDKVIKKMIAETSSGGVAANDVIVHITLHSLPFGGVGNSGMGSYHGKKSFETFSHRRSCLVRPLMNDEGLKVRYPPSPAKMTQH
Protocol: Human recombinant ALDH1A1/1A3/3A1 was purchased, and 100 mM of KCL, 2 mM of DTT, 1 mM of NAD(P), 10-100 nM of each ALDH, and 10-80 μM of each compound were mixed in Tris buffer (100 mM, pH 7.5), reacted for 30 minutes at 37° C., an equal amount of acetonitrile added, and the reaction stopped. The reaction solution was analyzed by UPLC/MS/MS (Waters). The UPCL chromatogram was carried out over five minutes at a flow rate of 800 μL/min by a linear gradient from 5% acetonitrile 0.01 M ammonium formate/water to 95% acetonitrile 0.01 M ammonium formate/water. An aldehyde-form and carboxylic acid-form probe were detected by the absorbance at a wavelength of 504 nm, and m/z of the MS spectrum at each peak was confirmed to agree with the expected m/z.
For the reaction, 100 mM of KCL, 2 mM of DTT, 1 mM of NAD(P), and five to six concentrations within the range of 10-100 nM of each ALDH and 0.1-80 μM of each probe were selected, mixed in Tris buffer (100 mM, pH 7.5), and reacted for five minutes at 37° C.; an equal amount of acetonitrile was added, and the reaction was stopped. Detection of the aldehyde-form/carboxylic acid-form probes was carried out using the same method as described above by UPLC/MS/MS. Km and Kcat were calculated by fitting the reaction rate at each probe concentration obtained to the Michaelis-Menten equation. A Kaleida Graph ver. 4.1 (Hulinks, Inc.) was used in fitting.
The Kcat ratio (Kcat of ALDH3A1/Kcat of ALDH1A1) was calculated for probe 1, probe 3, and probe 5 as an indicator of ALDH1A1/ALDH3A1 specificity because the probe reaction rate at the actual probe use concentration is believed to be close to Vmax since Km is relatively small (Table 5).

OE21 cells [1] = assay: Flow cytometry of OE21 cells (positive rate); type: cell-based
Protocol: Flow cytometry was carried out using probe 5 and OE21 cells. The cells were treated using trypsin, and the cell density was measured after passing the cells through a cell strainer (40 μm, Corning). […] After centrifuging for three minutes at 1500 rpm and removing the supernatant after the reaction, the cells were washed with chilled medium, centrifuged, and the medium was removed. The cells were again suspended in 100 μL of medium, and 4 μL of SYTOX (registered trademark) Red Dead Cell Stain (Thermo Fisher) was added. After standing for five minutes on ice, 150 μL of medium was added. […] Analysis was carried out using FACS Canto II (BD Biosciences). Excitation was provided by a blue laser (488 nm), and the brightness of probe 5 was detected in each cell by FITC channel (515-545 nm). About 30,000 cells were analyzed in each sample after removing doublets and removing dead cells. The positive gate was set in a range from near to above the upper limit of brightness in the negative control according to ALDEFLUOR assay, so that at most 3% of the cells were present within the gate in the negative control sample. Three independent tests were run.
ALDH3A1 was knocked down using small interference RNA (siRNA) to confirm that the positive group in flow cytometry using 0E21 cells and compound 5 was due to ALDH3A1 activity, and flow cytometry was conducted. Two siRNAs confirmed to be effective (Silencer (registered trademark) Select, s1243 and s1244) and a negative control (Silencer® negative control #1) were purchased from Thermo Fisher. Lipofectamine® RNAiMAX as transfection reagent and Opti-MEM® as diluent were purchased from Thermo Fisher. According to the instruction manual, 300 μL of siRNA-Lipofectamine complex was produced according to the instruction manual so that siRNA was 10 nM and Lipofectamine was 3%, and 250 μL thereof was mixed with 2.5 mL of OE21 cell suspension and sown in six-well dishes. The effect of knockdown was confirmed after six days by Western blotting (FIG. 6a).
Lysates were produced using negative control cells (ctrl) in which ALDH3A1 was not knocked down and cells (KD) in which ALDH3A1 was permanently knocked down. Western blotting was carried out, and pronounced knockdown of ALDH3A1 was confirmed (FIG. 9a). […] The top 25% (top) and bottom 25% (bottom) of fluorescent brightness were sorted out by FACS Aria II using a sample in which the positive and negative were well separated. The respective lysates were produced, Western blotting was carried out using the same, and the expression levels of ALDH3A1 were compared (FIG. 9c).

OE21 cells [2] = assay: SYTOX Red Dead Cell Stain assay during flow cytometry; type: cell-based; settings: OE21 shRNA cells, probe 5 with MK-571, SYTOX Red Dead Cell Stain
Protocol: Flow cytometry was carried out using probe 5 and OE21 cells. The cells were treated using trypsin, and the cell density was measured after passing the cells through a cell strainer (40 μm, Corning). A quantity of 500 μL of a cell suspension to make 2.5-5×10^5/mL in medium containing 40 μM of probe 5 was prepared and cultured for 90 minutes at 37° C. After centrifuging for three minutes at 1500 rpm and removing the supernatant after the reaction, the cells were washed with chilled medium, centrifuged, and the medium was removed. The cells were again suspended in 100 μL of medium, and 4 μL of SYTOX (registered trademark) Red Dead Cell Stain (Thermo Fisher) was added. After standing for five minutes on ice, 150 μL of medium was added. A sample with CB7 (10 μM) added was used as a negative control. Analysis was carried out using FACS Canto II (BD Biosciences). Excitation was provided by a blue laser (488 nm), and the brightness of probe 5 was detected in each cell by FITC channel (515-545 nm). About 30,000 cells were analyzed in each sample after removing doublets and removing dead cells. The positive gate was set in a range from near to above the upper limit of brightness in the negative control according to ALDEFLUOR assay, so that at most 3% of the cells were present within the gate in the negative control sample. Three independent tests were run. […]

[3] = 50 μM probe 5, 200 μM MK-571, CB7 20 μM control

CCN(CCOCCNC(=O)c1ccc(-c2c3ccc(=O)cc-3oc3cc(O)ccc23)c(C)c1)c1ccc(C=O)cc1 [Probe 5, 2-(2-(N-ethyl-N-(4-formylphenyl)amino)ethoxy)ethyl-3-methyl-4-(6-hydroxyxanthen-3-on-9-yl)-benzamide]
Km (ALDH3A1): 3.49 ± 0.55 µM
Positive rate in flow cytometry (OE21 cells [1]; 40 μM probe 5, 90 minutes at 37° C., no MK-571, gate set with CB7 10 μM control): 10-15%
Positive rate in flow cytometry with MK-571, ALDH3A1 siRNA knockdown (OE21 cells [1]; [3]): around 10%
Positive rate in flow cytometry with MK-571, cells treated by negative control siRNA (OE21 cells [1]; [3]): about 90%
Positive rate in flow cytometry with MK-571 (OE21 cells [1]; 50 μM probe 5, MK-571 200 μM): about 90%
Dead cells / cell death due to the probe (OE21 cells [2]): virtually no dead cells were found

Source: patent US20200207989A1, “FLUORESCENT PROBE FOR ALDH3A1 DETECTION” (The University of Tokyo, priority 2016, published 2020)
